Experimental data taken from patent publication USRE39591E1, “6-O-substituted ketolides having antibacterial activity” (Abbott Laboratories, priority 1996, dated 2007).

System: up to 32 different microorganisms
Test: in vitro antibacterial activity (MIC), agar dilution on Brain Heart Infusion (BHI) agar with Steers replicator
Format: cell-based
Settings: unit assumed
Procedure: Representative compounds of the present invention were assayed in vitro for antibacterial activity as follows: Twelve petri dishes containing successive aqueous dilutions of the test compound mixed with 10 mL of sterilized Brain Heart Infusion (BHI) agar (Difco 0148-01-5) were prepared. Each plate was inoculated with 1:100 (or 1:10 for slow-growing strains, such as Micrococcus and Streptococcus) dilutions of up to 32 different microorganisms, using a Steers replicator block. The inoculated plates were incubated at 35°-37° C. for 20 to 24 hours. In addition, a control plate, using BHI agar containing no test compound, was prepared and incubated at the beginning and end of each test.
An additional plate containing a compound having known susceptibility patterns for the organisms being tested and belonging to the same antibiotic class as the test compound was also prepared and incubated as a further control, as well as to provide test-to-test comparability. Erythromycin A was used for this purpose.
After incubation, each plate was visually inspected. The minimum inhibitory concentration (MIC) was defined as the lowest concentration of drug yielding no growth, a slight haze, or sparsely isolated colonies on the inoculum spot as compared to the growth control.

[1] = Candida albicans CCH 442 (code TT)
[2] = Enterococcus faecism ATCC 8043 (code II)
[3] = Escherichia coli DC-2 (code SS)
[4] = Escherichia coli JUHL (code QQ)
[5] = Micrococcus luteus ATCC 4698 (code PP)
[6] = Micrococcus luteus ATCC 9341 (code OO)
[7] = Mycobacterium smegmatis ATCC 114 (code UU)
[8] = Nocardia Asteroides ATCC9970 (code VV)
[9] = Staphylococcus aureus 1775 (code GG)
[10] = Staphylococcus aureus A5177 (code BB)
[11] = Staphylococcus aureus A-5278 (code CC)
[12] = Staphylococcus aureus ATCC 6538P (code AA)
[13] = Staphylococcus aureus CMX 553 (code FF)
[14] = Staphylococcus aureus CMX 642A (code DD)
[15] = Staphylococcus aureus NCTC10649M (code EE)
[16] = Staphylococcus epidermidis 3519 (code HH)
[17] = Streptococcus agalactiae CMX 508 (code KK)
[18] = Streptococcus bovis A-5169 (code JJ)
[19] = Streptococcus pyogenes 930 (code MM)
[20] = Streptococcus pyogenes EES61 (code LL)
[21] = Streptococcus pyogenes PIU 2548 (code NN)
[22] = Haemophilis influenzae DILL AMP R (code WW)
[23] = Streptococcus Pneumonia 5649 (code ZZA)
[24] = Streptococcus Pneumonia 5979 (code ZZ)
[25] = Streptococcus Pneumonia ATCC6303 (code XX)
[26] = Streptococcus Pneumonia GYR 1171 (code YY)

SMILES	MIC [1] [µg/mL]	MIC [2] [µg/mL]	MIC [3] [µg/mL]	MIC [4] [µg/mL]	MIC (Escherichia coli SS (code RR)) [µg/mL]	MIC [5] [µg/mL]	MIC [6] [µg/mL]	MIC [7] [µg/mL]	MIC [8] [µg/mL]	MIC [9] [µg/mL]	MIC [10] [µg/mL]	MIC [11] [µg/mL]	MIC [12] [µg/mL]	MIC [13] [µg/mL]	MIC [14] [µg/mL]	MIC [15] [µg/mL]	MIC [16] [µg/mL]	MIC [17] [µg/mL]	MIC [18] [µg/mL]	MIC [19] [µg/mL]	also measured
CCCO[C@@]1(C)C[C@@H](C)C(=O)[C@H](C)[C@@H](O)[C@](C)(O)[C@@H](CC)OC(=O)[C@H](C)C(=O)[C@H](C)[C@H]1O[C@@H]1O[C@H](C)C[C@H](N(C)C)[C@H]1O [Example 3, Compound of Formula (VIII): X is O, R is propyl]	> 100	25	> 100	> 100	50	100	12.5	> 100	12.5	> 100	> 100	> 100	25	25	100	25	50	25	25	> 100	MIC [20]: 100 µg/mL; MIC [21]: 100 µg/mL
CC[C@H]1OC(=O)[C@H](C)C(=O)[C@H](C)[C@@H](O[C@@H]2O[C@H](C)C[C@H](N(C)C)[C@H]2O)[C@@](C)(OCC=NO)C[C@@H](C)C(=O)[C@H](C)[C@@H](O)[C@]1(C)O [Example 5, Compound of Formula (VIII): X is O, R is —CH2CH═NOH]	> 100	6.2	> 100	> 100	6.2	6.2	0.78	> 100	6.2	> 100	6.2	> 100	6.2	12.5	12.5	12.5	6.2	1.56	1.56	> 100	MIC [22]: > 128 µg/mL; MIC [23]: 16 µg/mL; MIC [24]: > 128 µg/mL; MIC [25]: 8 µg/mL; MIC [26]: 4 µg/mL; MIC [20]: 3.1 µg/mL; MIC [21]: 6.2 µg/mL
CC[C@H]1OC(=O)[C@H](C)C(=O)[C@H](C)[C@@H](O[C@@H]2O[C@H](C)C[C@H](N(C)C)[C@H]2O)[C@@](C)(OCC#N)C[C@@H](C)C(=O)[C@H](C)[C@@H](O)[C@]1(C)O [Example 7, Compound of Formula (VIII): X is O, R is —CH2CN]	> 100	1.56	> 100	> 100	3.1	1.56	0.39	> 100	0.78	> 100	3.1	> 100	3.1	3.1	3.1	3.1	3.1	0.78	0.78	> 100	MIC [20]: 1.56 µg/mL; MIC [21]: 3.1 µg/mL
CC[C@H]1OC(=O)[C@H](C)C(=O)[C@H](C)[C@@H](O[C@@H]2O[C@H](C)C[C@H](N(C)C)[C@H]2O)[C@@](C)(OCCN)C[C@@H](C)C(=O)[C@H](C)[C@@H](O)[C@]1(C)O [Example 8, Compound of Formula (VIII): X is O, R is —CH2CH2NH2]	> 100	6.2	> 100	> 100	6.2	12.5	6.2	> 100	12.5	> 100	25	> 100	25	50	6.2	6.2	100	6.2	3.1	> 100	MIC [20]: 6.2 µg/mL; MIC [21]: 12.5 µg/mL
CC[C@H]1OC(=O)[C@H](C)C(=O)[C@H](C)[C@@H](O[C@@H]2O[C@H](C)C[C@H](N(C)C)[C@H]2O)[C@@](C)(OCCNCc2ccccc2)C[C@@H](C)C(=O)[C@H](C)[C@@H](O)[C@]1(C)O [Example 9, Compound of Formula (VIII): X is O, R is —CH2CH2NHCH2-Phenyl]	> 100	0.78	25	25	0.39	0.78	0.2	6.2	0.2	> 100	1.56	> 100	3.1	3.1	6.2	0.78	3.1	0.39	0.05	> 100	MIC [22]: 16 µg/mL; MIC [23]: 4 µg/mL; MIC [24]: > 64 µg/mL; MIC [25]: 0.25 µg/mL; MIC [26]: 0.25 µg/mL; MIC [20]: 0.39 µg/mL; MIC [21]: 0.78 µg/mL
